The first test deals with human P2X7 receptor (Homo sapiens, UniProt Q99572, R270H/Y155H). The test is described as follows: Evaluation of human P2X7 receptor inhibitory activity (Yo-Pro uptake, BzATP stimulation, FLIPR TETRA). The test is classed as cell-based. Particulars: 1321N1 cells stably expressing human P2X7 receptor; BzATP stimulation, Yo-Pro uptake; read-out: IC50 (antagonistic activity for the human P2X7 receptor). In outline:
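Yo-Pro dye uptake triggered by BzATP was monitored by FLIPR in human P2X7-transfected 1321N1 cells (SNP variant) in HEPES-buffered HBSS, pH 7.4-7.5. Compound was dispensed 8 min post-stimulation, then signal read for 20 min; IC50 derived logistically from inhibition of the fluorescence range.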
As usually defined, the IC50 is the concentration needed to halve the response being measured. Take `COc1cn(Cc2cc(F)cc(F)c2)c(Nc2ccc3c(c2C)COC3)nc1=O` [Compound I-0900]: the IC50 was 12 nM.
Consider `CCc1ccccc1CNc1nc(=O)c(OC)cn1Cc1ccc(F)c(Cl)c1` [Compound I-0453], for which the IC50 is 73 nM.
`COc1cn(Cc2cc(F)cc(F)c2)c(Nc2cc3[nH]ncc3cc2C)nc1=O` [Compound I-0597]: the half-maximal inhibitory concentration (IC50) stood at 20 nM.
Turning to `COc1cn(Cc2ccc(F)c(Cl)c2)c(Nc2cc3c(cc2C)OCCC3)nc1=O` [Compound I-0914], the IC50 is 22 nM.
Take `COc1cnc(Nc2cccc(Cl)c2C)n(Cc2ccccc2)c1=O` [Compound I-0967]: the IC50 is 450 nM.

Still in this test, the particulars now being: 1321N1 cells stably expressing human P2X7 receptor; BzATP stimulation, Yo-Pro uptake; read-out: IC50 (antagonistic activity for the human P2X7 receptor), class symbol.
Turning to `Cc1cc(C)c(Nc2nc(=O)c(C(=O)NCC(=O)N(C)C)cn2Cc2ccccc2)cc1C` [Compound I-0226], the IC50 fell in the range of 10 to 100 nM.
For the compound `COc1cn(Cc2cccc(F)c2)c(Nc2cc(C)c(OC(F)F)cc2C)nc1=O` [Compound I-0300], the IC50 was < 10 nM.
The same measure, in the same setting: under `COc1cn(Cc2ccc(F)c(Cl)c2)c(Nc2cc(-c3ncco3)ccc2C)nc1=O` [Compound I-0549] stands < 10 nM.
Same read-out and setting: under `COc1cn(Cc2ccccc2)c(Nc2cc3sc(C)nc3cc2C)nc1=O` [Compound I-0431] stands 10 to 100 nM.
As to `CCOc1cc(C)c(Nc2nc(=O)c(OC)cn2Cc2cccc(F)c2)cc1C` [Compound I-0257], the IC50 was < 10 nM.
For `COc1cn(Cc2cc(F)cc(Cl)c2)c(Nc2cccc3[nH]c(C)cc23)nc1=O` [Compound I-0579], the IC50 was 10 to 100 nM.
Turning to `COc1cn(Cc2ccccc2F)c(Nc2cccc(Cl)c2C)nc1=O` [Compound I-0040], the IC50 was in the range of 10 to 100 nM.
Turning to `CCc1cc(OC)c(OC)cc1Nc1nc(=O)c(OC)cn1Cc1cccc(Cl)c1` [Compound I-0271], the 50% inhibitory concentration (IC50) was < 10 nM.
`CCc1ccccc1Nc1nc(=O)c(OC)cn1Cc1ccccc1` [Compound I-0084]: the IC50 fell in the range of 10 to 100 nM.
In the case of `COc1cn(Cc2ccccc2)c(Nc2cccc(CO)c2C)nc1=O` [Compound I-0110], the IC50 lay in the range of 100 to 500 nM.
In the case of `Cc1c(Cl)cccc1Nc1nc(=O)c(CC(=O)N2CCOCC2)cn1Cc1ccccc1` [Compound I-0339], the 50% inhibitory concentration (IC50) was in the range of 100 to 500 nM.
With `COc1cn(Cc2cc(F)cc(Cl)c2)c(Nc2cc(C)c(Cl)cc2C)nc1=O` [Compound I-0385], the IC50 was in the range of 10 to 100 nM.
Same read-out and setting: the figure for `COc1cn(Cc2ccccc2)c(N[C@@H]2CCCc3ccccc32)nc1=O` [Compound I-0173] is 100 to 500 nM.
Still for that read-out and setting: under `COc1cn(Cc2ccc(F)cc2F)c(Nc2cccc(Cl)c2C)nc1=O` [Compound I-0329] stands 10 to 100 nM.
The same measure, in the same setting: the figure for `COc1ccc(Nc2nc(=O)c(OC)cn2Cc2cc(F)c(F)c(F)c2)c(C)c1` [Compound I-0581] is < 10 nM; for `COc1cn(Cc2ccc(F)c(F)c2)c(Nc2cc(C)c(OC(F)F)cc2C)nc1=O` [Compound I-0302] it is < 10 nM; for `COc1cn(Cc2ccc(F)c(Cl)c2)c(Nc2cc(S(C)(=O)=O)ccc2C)nc1=O` [Compound I-0547] it is 10 to 100 nM.
For `COc1cn(Cc2ccccc2)c(Nc2cc(S(=O)(=O)Nc3ccccc3)c(F)cc2C)nc1=O` [Compound I-0415], the half-maximal inhibitory concentration (IC50) was 500 to 1000 nM.
Consider `COc1c(C)cccc1Nc1nc(=O)c(OC)cn1Cc1ccccc1` [Compound I-0130], for which the IC50 lay in the range of 100 to 500 nM.
Consider `COc1cn(Cc2cc(C)cc(F)c2)c(Nc2cccc(Cl)c2C)nc1=O` [Compound I-0478], for which the half-inhibitory concentration (IC50) was < 10 nM.
Still for that read-out and setting: under `Cc1c(Cl)cccc1Nc1nc(=O)c(CC(=O)NCCO)cn1Cc1ccccc1` [Compound I-0337] stands 100 to 500 nM; under `CCc1cc(F)ccc1Nc1nc(=O)c(OC)cn1Cc1ccc(F)c(Cl)c1` [Compound I-0420], 10 to 100 nM; under `COc1cc(Nc2nc(=O)c(OC)cn2Cc2cc(F)cc(Cl)c2)c(C)cc1Cl` [Compound I-0537], < 10 nM.
With `CNC(=O)Cc1cn(Cc2ccccc2)c(Nc2cccc(Cl)c2C)nc1=O` [Compound I-0330], the IC50 lay in the range of 100 to 500 nM.
In the case of `COc1cn(Cc2ccc(F)c(Cl)c2)c(Nc2cccc3c(=O)[nH]ccc23)nc1=O` [Compound I-0398], the concentration for half-maximal inhibition (IC50) is 10 to 100 nM.

The test is the same for the next values; noted with them: antagonistic activity for the human P2X7 receptor; read-out: IC50.
`Cc1cc(OC(F)F)c(C)cc1Nc1nc(=O)c(F)cn1Cc1cc(F)c(F)c(F)c1` [Compound I-1210]: the IC50 is < 10 nM.
Same read-out and setting: the figure for `COCc1cn(Cc2cc(F)c(F)c(F)c2)c(Nc2ccc3[nH]ccc3c2C)nc1=O` [Compound I-1163] is < 10 nM; for `COc1cn(Cc2ccc(F)c(F)c2)c(Nc2cc(Cl)c(F)cc2C)nc1=O` [Compound I-0810] it is 10 to 100 nM; for `COc1cn(Cc2ccccc2)c(Nc2cc(-c3ccccc3)ccc2C)nc1=O` [Compound I-0827] it is 10 to 100 nM.
For the compound `COc1cn(Cc2ccccc2)c(Nc2ccc(N(C)C)cc2C)nc1=O` [Compound I-0622], the IC50 was in the range of 10 to 100 nM.
Still for that read-out and setting: under `Cc1cc2cc(Nc3nc(=O)c(F)cn3Cc3ccc(F)c(Cl)c3)c(C)cc2[nH]1` [Compound I-1055] stands 10 to 100 nM; under `COc1cn(Cc2ccc(F)c(Cl)c2)c(Nc2cccc3c2ccc(=O)n3C)nc1=O` [Compound I-0881], 100 to 500 nM.
Same read-out and setting: under `COc1cn(Cc2ccc(F)c(F)c2)c(Nc2cc(-c3cccnc3)ccc2C)nc1=O` [Compound I-0764] stands < 10 nM.
Same read-out and setting: under `COc1cn(Cc2cc(F)c(F)c(F)c2)c(Nc2cc3c(cc2C)OCCO3)nc1=O` [Compound I-0708] stands < 10 nM; under `Cc1nc2[nH]ccc2cc1Nc1nc(=O)c(F)cn1Cc1cc(F)cc(F)c1` [Compound I-1016], 10 to 100 nM.
`Cc1nc2cc(C)c(Nc3nc(=O)c(F)cn3Cc3cc(F)cc(F)c3)cc2s1` [Compound I-1009]: the IC50 was < 10 nM.
As to `COCCOc1ccc(C)c(Nc2nc(=O)c(F)cn2Cc2cc(F)c(F)c(F)c2)c1` [Compound I-1179], the IC50 was < 10 nM.
Turning to `COc1cc(Nc2nc(=O)c(OC)cn2Cc2cc(F)c(F)c(F)c2)c(C)cc1C` [Compound I-0715], the concentration for half-maximal inhibition (IC50) is < 10 nM.
In the case of `Cc1ccc(CF)cc1Nc1nc(=O)c(F)cn1Cc1cc(F)cc(F)c1` [Compound I-1240], the IC50 was < 10 nM.
On to `COc1cn(Cc2cc(F)cc(F)c2)c(Nc2cccc3c(=O)n(C)ccc23)nc1=O` [Compound I-0905], for which the concentration for half-maximal inhibition (IC50) was 100 to 500 nM.
As for `COc1cn(Cc2ccc(F)c(F)c2)c(Nc2cc(OC3CC3)ccc2C)nc1=O` [Compound I-0890], the half-inhibitory concentration (IC50) was 10 to 100 nM.
For the compound `CN1CCc2c(cccc2Nc2nc(=O)c(F)cn2Cc2cc(F)c(F)c(F)c2)C1` [Compound I-1107], the IC50 lay within 10 to 100 nM.
Take `COc1cn(Cc2ccc(F)c(Cl)c2)c(Nc2cc(C(C)(C)O)ccc2C)nc1=O` [Compound I-0775]: the IC50 lay in the range of 10 to 100 nM.
On to `COc1nc2ccc(Nc3nc(=O)c(OC)cn3Cc3cc(F)cc(F)c3)c(C)c2s1` [Compound I-0830], for which the IC50 fell in the range of 10 to 100 nM.
Turning to `COc1cc(C)c(Nc2nc(=O)c(CF)nn2Cc2cc(F)c(F)c(F)c2)cc1OC` [Compound I-1248], the IC50 is 10 to 100 nM.
Turning to `COc1cn(Cc2ccc(F)c(Cl)c2)c(Nc2ccc3c(c2C)COC3)nc1=O` [Compound I-0907], the half-inhibitory concentration (IC50) was < 10 nM.
The same measure, in the same setting: under `COc1cn(Cc2cc(F)cc(Cl)c2)c(Nc2cccc(SC)c2C)nc1=O` [Compound I-0682] stands 10 to 100 nM; under `COc1cn(Cc2cccc(F)c2)c(Nc2cc(C)ccc2C)nc1=O` [Compound I-0644], 10 to 100 nM.

Values taken from patent US10774051B2, “6-membered heterocyclic derivatives and pharmaceutical composition comprising the same” (Shionogi & Co., Ltd., priority 2015, dated 2020).
